The source of these data is ChEMBL document CHEMBL1123241, “Alkyl-substituted thiolo-, thiono-, and dithio-gamma-butyrolactones: new classes of convulsant and anticonvulsant agents” (1986).

Common to all, as to assay type: functional
In experiment [1] the test system is Mus musculus. Briefly: Compound was evaluated for anticonvulsant activity against PTZ-induced clonic seizures at 62.5 mg/kg dose; 4/4.
The subject of experiment [2] is Mus musculus. Put plainly: Compound was evaluated for anticonvulsant activity against PTZ-induced clonic seizures at the 125 mg/kg dose; 4/4.
For experiment [3], the system named is Mus musculus. Put plainly: Compound was evaluated for anticonvulsant activity against PTZ-induced clonic seizures at the 250 mg/kg dose; 4/4.
Experiment [4] relates to Mus musculus. Put plainly: Compound was evaluated for anticonvulsant activity against PTZ-induced tonic seizures at the 250 mg/kg dose; 4/4.
Experiment [5] relates to Mus musculus. Briefly: Compound was evaluated for anticonvulsant activity against PTZ-induced tonic seizures at the 62.5 mg/kg dose; 4/4.
For experiment [6], the system named is Mus musculus. Briefly: Compound was evaluated for anticonvulsant activity against PTZ-induced tonic seizures at the 125 mg/kg dose; 4/4.
The test system of experiment [7] is Mus musculus. Put plainly: Compound was evaluated for anticonvulsant activity against PTZ-induced clonic seizures at the 100 mg/kg dose; 5/5.
Experiment [8] has as its system Mus musculus. Put plainly: Compound was evaluated for anticonvulsant activity against PTZ-induced clonic seizures at the 500 mg/kg dose; 3/5.
For experiment [9], the system named is Mus musculus. Briefly: Compound was evaluated for anticonvulsant activity against PTZ-induced tonic seizures at the 100 mg/kg dose; 5/5.
Experiment [10] deals with Mus musculus. Briefly: Compound was evaluated for anticonvulsant activity against PTZ-induced tonic seizures at the 500 mg/kg dose; 1/5.
For experiment [11], the system named is Mus musculus. Put plainly: Compound was evaluated for anticonvulsant activity against PTZ-induced clonic seizures at the 250 mg/kg dose; 3/5.
Experiment [12] relates to Mus musculus. Put plainly: Compound was evaluated for anticonvulsant activity against PTZ-induced tonic seizures at the 250 mg/kg dose; 3/5.

Consider `CCC1(C)CCOC1=O` (configuration not stated), for which the “Mean time to seizure” value in the experiment with Mus musculus [1] is 150 s; in the experiment with Mus musculus [2] it was 365 s; in the experiment with Mus musculus [3], 163 s; in the experiment on Mus musculus [4] it was 844 s; with Mus musculus [5], 1015 s; with Mus musculus [6], 1078 s.

`CCC1(C)CCSC1=S` (configuration not stated): the “Mean time to seizure” value in the experiment on Mus musculus [7] was found to be 87 s; with Mus musculus [8] it was 218 s; in the experiment on Mus musculus [9], 728 s; with Mus musculus [10], 1200 s.

Consider `CCC1(C)CCOC1=S` (configuration not stated), for which the “Mean time to seizure” value with Mus musculus [11] is listed as 155 s; with Mus musculus [12] it was 341 s.
